Two compounds from patent publication US20060194835A1, “Compositions and methods for treating or preventing flaviviridae infections” (priority 2005, published 2006) can be followed below.

Data set [1] is described as follows: in vitro. Particulars: bovine.
Data set [2] concerns BVDV. Briefly: Double combination checkerboard CPE assay, MacSynergy II and isobolograms. The format is cell-based, bovine viral diarrhea virus. The protocol: A double combination assay was performed using MDBK cells infected with BVDV in an inhibition of cytopathic effect (CPE) assay as described in Example 2. The double drug combinations were measured by creating a “checkerboard” of drug concentrations used on cell monolayers in microtiter plates, with one drug being titrated horizontally and the other drug titrated vertically, and each double combination being tested at least twice.
The EC50 values of a first test compound derived while in combination with a second test compound were plotted against the corresponding concentration of the second test compound to create an isobole (dose pair). All of the isoboles were plotted in an isobologram to determine the presence of synergy, antagonism or additivity for the combined test compounds. […] The line connecting the monotherapy EC50 values represents the theoretical additivity effect values for the two compounds.
In addition to generating isobolograms, the checkerboard data was imported into MacSynergy™ II software to graph the observed synergy (or additive or antagonism) volumes for the double combinations tested. Briefly, the calculated additive interactions were subtracted from the experimentally determined values to reveal the corresponding drug concentrations at which a synergistic (indicated by positive % values) or antagonistic (indicated by negative % values) effect is observed. The greater the positive percent volume observed, the greater the synergy between the two compounds. […] In contrast, any value about or less than −25 μM^2% or μM(IU/mL) % is indicative of a significant antagonistic effect. The data presented in Table 5 represent volumes of synergy or antagonism with 95% confidence. The confidence level was calculated using a Bonferroni adjustment as a conservative estimate of significance to statistically evaluate the data.

For data set [3], the system named is BVDV. Briefly: Protection of MDBK cells from BVDV-induced cytopathicity (CPE reduction, MTS/PMS). The format is cell-based, bovine viral diarrhea virus. The conditions noted are these: Bovine viral diarrhea virus isolates and strains, MDBK, 50% CPE reduction; MOI 0.01. In general terms: Cytopathic effects are the visible damage that an infection or toxin causes in cultured cells.

A short description of data set [4]: Pharmacokinetics of orally administered celgosivir in rats (plasma castanospermine). The format is in vivo, Male Sprague-Dawley rats. Particulars: normal rats; loperamide 0.35 mg/kg. The procedure: The purpose of this study was to evaluate the effect of an anti-diarrheal agent on the pharmacokinetics (PK) of orally administered celgosivir. In addition, the effect of anti-diarrheal agents on celgosivir PK was investigated. The pharmacokinetics of celgosivir was assessed by following the plasma profile of celgosivir's primary metabolite, castanospermine. By way of background, orally administered celgosivir, although well tolerated in humans, does produce side effects in the gastrointestinal tract, including flatulence and mild to moderate diarrhea. Loperamide hydrochloride, an anti-motility agent that is an active ingredient found in some over-the-counter medications used for symptomatic relief of acute and chronic diarrhea, was investigated for its effect on the PK of orally administered celgosivir. […]
At various time-points after celgosivir administration, blood samples were withdrawn from animals via the tail vein. Plasma samples were generated and stored frozen until analyzed. Plasma samples were analyzed for castanospermine, the major metabolite of celgosivir, using LC/MS. […] Celgosivir pharmacokinetics was assessed by following the plasma concentration of its primary metabolite, castanospermine. Pharmacokinetic parameters were calculated according to a two-compartment model with bio-exponential decay using the method of residuals. […]

Data set [5] concerns BVDV. Briefly: Triple combination checkerboard CPE assay (celgosivir or castanospermine + interferon-α2b + ribavirin), MacSynergy II. The format is cell-based, bovine viral diarrhea virus. Particulars: for EC50: Bovine viral diarrhea virus isolates and strains, read-out: Average Celgosivir EC50. The protocol: Each double or triple combination was performed twice. The combination efficacy data were analyzed using the MacSynergy™ II software program as described herein.
Each double or triple combination was performed twice. The combination efficacy data were analyzed using the MacSynergy™ II software program as described herein. The EC50 for each of celgosivir and castanospermine was calculated from the triple combination studies described in Example 6.
Each double or triple combination was performed twice. The combination efficacy data were analyzed using the MacSynergy™ software program as described herein. The EC50 for interferon-α2b was calculated from the triple combination studies described in Example 6.

Data set [6] relates to BVDV strain NADL. The experiment in a line: Inhibition of viral release from BVDV-infected MDBK cells (plaque titer). Particulars: for EC50 / EC90: Bovine viral diarrhea virus isolates and strains, MDBK, 24 h.
Data set [7] can be described thus: in vitro. Particulars: bovine. This is another data set of the same source.
Data set [8] is described as follows: Cytotoxicity of test compound in MDBK cells in the absence of viral infection (Example 1). The conditions noted are these: bovine, MDBK cells, uninfected.
A short description of data set [9]: Drug cytotoxicity in uninfected MDBK cells (MTS/PMS). The conditions noted are these: bovine.

Broadly, the EC50 is the concentration at which the effect is half-maximal. As usually defined, the EC90 is the concentration needed for an effect of 90%. A high value points to a need for much substance. `CCCC(=O)O[C@H]1CN2CC[C@H](O)[C@@H]2[C@@H](O)[C@@H]1O` [Celgosivir, [1S-(1α,6β,7α,8β,8aβ)]-octahydro-1,6,7,8-indolizinetetrol 6-butanoate] displayed a CC50 at 24 h in data set [1] above 2000 µM. In addition, the “fold reduction of EC50 of celgosivir” value in data set [2] (at 2 μM ribavirin) is listed as 3 fold; in [2] (at 2.2 μM NM-107), “more than 8 fold”. Also, the EC50 in data set [3] was 7.7 ± 3 µM; in [5] (Ribavirin 0 μM, Interferon-α2b 0 IU/mL), around 6.5 µM; in data set [5] (Ribavirin 0 μM, Interferon-α2b 0.7 IU/mL) it was 4.8 ± 0.7 µM; in data set [5] (Ribavirin 0 μM, Interferon-α2b 2.2 IU/mL), 3.9 ± 0.9 µM; in [5] (Ribavirin 0 μM, Interferon-α2b 6.7 IU/mL), 1.6 ± 0.6 µM; in data set [5] (Ribavirin 0 μM, Interferon-α2b 20 IU/mL) it was below 0.4 µM. Moreover, the EC50 in [5] (Ribavirin 0.37 μM, Interferon-α2b 0.7 IU/mL) is 4.3 ± 1 µM; in data set [5] (Ribavirin 0.37 μM, Interferon-α2b 2.2 IU/mL), 2.7 ± 1.3 µM; in data set [5] (Ribavirin 0.37 μM, Interferon-α2b 6.7 IU/mL) it was 1 ± 0.7 µM; in data set [5] (Ribavirin 0.37 μM, Interferon-α2b 20 IU/mL) it was below 0.3 µM; in data set [5] (Ribavirin 1.1 μM, Interferon-α2b 0.7 IU/mL), 2.9 ± 0.9 µM; in data set [5] (Ribavirin 1.1 μM, Interferon-α2b 2.2 IU/mL), 2.1 ± 0.2 µM. In addition, the EC50 in data set [5] (Ribavirin 1.1 μM, Interferon-α2b 6.7 IU/mL) is below 0.9 µM; in data set [5] (Ribavirin 1.1 μM, Interferon-α2b 20 IU/mL), below 0.3 µM; in data set [5] (Ribavirin 3.3 μM, Interferon-α2b 0.7 IU/mL), below 1 µM; in data set [5] (Ribavirin 3.3 μM, Interferon-α2b 2.2 IU/mL), below 0.3 µM; in data set [5] (Ribavirin 3.3 μM, Interferon-α2b 6.7 IU/mL), below 0.3 µM; in [5] (Ribavirin 3.3 μM, Interferon-α2b 20 IU/mL), below 0.3 µM. Besides, in [6], the EC50 came to 2 ± 1.3 µM. Moreover, the “effect of concomitant anti-diarrheal agent on the PK of celgosivir” value in [4] was “no significant effect”. The “dose-dependent reduction in EC50” value in data set [5] (upon the addition of increasing concentrations of interferon-α2b) is “up to 26 fold”. Also, it took 7.6 ± 2.3 µM to reach the 90% level in data set [6] (EC90). The “TI (Therapeutic Index, CC50/EC50)” value in data set [6] (MOI = 1) is on record as above 1000. The compound further returned a CC50 in data set [7] above 300 µM.

Consider `NC(=O)c1ncn([C@@H]2O[C@H](CO)[C@@H](O)[C@H]2O)n1` [Ribavirin, ribavirin, reference compound], for which, in data set [8], the CC50 at 24 h was 250 µM. Also, in data set [9], the CC50 is at least 25 µM. This compound also came in with an EC50 in data set [3] of 4.4 ± 2 µM. In data set [6], the EC50 came to 1.5 ± 1 µM and the EC90 was 5.7 ± 2.7 µM.
